ChEMBL document CHEMBL1201862, “PubChem BioAssay data set” (2004)
Calls of active or inactive are those of the source.

What was measured:
[1] = Luminescence Cell-Based Dose Response HTS to Identify Activators of Luciferase Translation or Activity in H4 […] Cells. [Related pubchem assays: 1829 (Project Summary), 1814 (Primary HTS)]; type: functional
[2] = Luminescence Cell-Based Dose Confirmation HTS to Identify Activators of 5'UTR Stem-Loop Driven Alpha-Synuclein mRNA Translation in H4 Neuroglioblastoma Cells. [Related pubchem assays: 1829 (Project Summary), 1814 (Primary HTS)]; type: functional
H4 = experiment: Luminescence Cell-Based Dose Response HTS to Identify Activators of 5'UTR Stem-Loop Driven Prion Protein mRNA Translation in H4 Neuroglioblastoma Cells. [Related pubchem assays: 1829 (Project Summary), 1814 (Primary HTS)]; type: functional; conditions: Homo sapiens
[3] = molecular target: T1, Polyadenylate-binding protein 1 (Homo sapiens, UniProt P11940); experiment: PABP1 MLLE–PAM2 binding inhibitor potency, dose response, biochemical, fluorescence polarization, FITC-PAM2 peptide (AID 602259); type: functional; conditions: read-out: IC50_Mean
T1 sequence (P11940 whole entry): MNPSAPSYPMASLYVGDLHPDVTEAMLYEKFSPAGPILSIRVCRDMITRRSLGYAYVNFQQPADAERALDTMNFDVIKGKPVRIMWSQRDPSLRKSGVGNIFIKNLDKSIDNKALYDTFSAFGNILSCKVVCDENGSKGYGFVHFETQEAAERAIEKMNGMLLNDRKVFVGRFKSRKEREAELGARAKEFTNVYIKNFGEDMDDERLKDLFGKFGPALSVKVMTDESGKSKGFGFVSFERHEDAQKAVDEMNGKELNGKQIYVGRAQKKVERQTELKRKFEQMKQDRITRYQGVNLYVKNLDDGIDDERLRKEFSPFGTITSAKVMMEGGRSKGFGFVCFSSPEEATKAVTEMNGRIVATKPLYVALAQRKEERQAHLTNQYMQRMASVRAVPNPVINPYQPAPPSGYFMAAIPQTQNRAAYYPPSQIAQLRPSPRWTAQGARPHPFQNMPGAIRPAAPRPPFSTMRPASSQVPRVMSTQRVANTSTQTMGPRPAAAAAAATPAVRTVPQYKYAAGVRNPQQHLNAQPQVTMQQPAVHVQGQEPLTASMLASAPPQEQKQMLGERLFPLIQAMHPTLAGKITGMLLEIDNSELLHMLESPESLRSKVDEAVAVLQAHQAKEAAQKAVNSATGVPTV

[4] = molecular target: T1, Polyadenylate-binding protein 1; experiment: PABP1 MLLE–PAM2 interaction inhibitors, dose response, miRNA deadenylation inhibitor project, biochemical, fluorescence polarization, Cy5-PAM2 peptide, secondary (AID 602260); type: functional; conditions: read-out: IC50_Mean
[5] = growth suppression of PTEN-null colon cells, dose response, cell-based, HCT116 PTEN knockout (AID 1047); type: functional;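 further: HCT116 colon tumor cells with PTEN knocked out; cells exposed to compound for 60 hours before readout; potency for loss of cell viability measured by luminescence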
[6] = growth suppression of beta-catenin-knockout colon cells, dose response, cell-based, HCT116, human colon tumor (AID 1045); type: functional;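 further: HCT116 colon tumor cells with beta catenin knocked out; cells exposed to compound for 60 hours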
[7] = molecular target: T2, Zinc finger protein mex-5 (Caenorhabditis elegans, UniProt Q9XUB2); experiment: MEX-5/TCR-2 RNA interaction inhibitors, dose response, biochemical, C. elegans, fluorescence polarization (AID 1960)
T2 sequence (Q9XUB2 whole entry): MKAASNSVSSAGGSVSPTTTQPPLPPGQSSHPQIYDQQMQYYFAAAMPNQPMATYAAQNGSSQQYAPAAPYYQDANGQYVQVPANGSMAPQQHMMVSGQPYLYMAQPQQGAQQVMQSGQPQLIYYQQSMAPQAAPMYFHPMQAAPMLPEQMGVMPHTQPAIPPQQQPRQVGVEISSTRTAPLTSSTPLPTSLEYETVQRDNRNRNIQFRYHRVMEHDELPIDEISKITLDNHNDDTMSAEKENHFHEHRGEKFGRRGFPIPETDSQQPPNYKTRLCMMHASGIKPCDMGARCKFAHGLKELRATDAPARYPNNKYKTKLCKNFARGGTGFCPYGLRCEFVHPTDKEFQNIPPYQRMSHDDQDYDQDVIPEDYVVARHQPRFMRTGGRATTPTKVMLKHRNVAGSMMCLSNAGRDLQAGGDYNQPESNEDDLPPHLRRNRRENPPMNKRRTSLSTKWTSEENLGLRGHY

[8] = molecular target: T3, RNA-binding protein pos-1 (Caenorhabditis elegans, UniProt G5EF15); experiment: inhibitors of POS-1/mex-3 RNA binding, dose response, biochemical, fluorescence polarization (AID 1964);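 further: purified POS-1 fused to maltose binding protein made in E. coli; potency of compounds blocking POS-1 binding to fluorescent RNA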
T3 sequence (G5EF15 whole entry): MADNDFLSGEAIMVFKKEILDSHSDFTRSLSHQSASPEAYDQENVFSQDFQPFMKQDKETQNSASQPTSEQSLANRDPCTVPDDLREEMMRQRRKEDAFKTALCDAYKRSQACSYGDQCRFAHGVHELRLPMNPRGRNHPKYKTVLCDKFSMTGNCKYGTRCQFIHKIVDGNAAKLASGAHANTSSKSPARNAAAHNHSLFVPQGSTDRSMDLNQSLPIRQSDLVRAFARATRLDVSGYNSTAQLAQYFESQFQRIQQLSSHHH

Cytochrome P450 1A2 = molecular target: T4, Cytochrome P450 1A2 (Homo sapiens, UniProt P05177);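 further: PubChem cytochrome P450 panel assay, CYP1A2 panel member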
T4 sequence (P05177 whole entry): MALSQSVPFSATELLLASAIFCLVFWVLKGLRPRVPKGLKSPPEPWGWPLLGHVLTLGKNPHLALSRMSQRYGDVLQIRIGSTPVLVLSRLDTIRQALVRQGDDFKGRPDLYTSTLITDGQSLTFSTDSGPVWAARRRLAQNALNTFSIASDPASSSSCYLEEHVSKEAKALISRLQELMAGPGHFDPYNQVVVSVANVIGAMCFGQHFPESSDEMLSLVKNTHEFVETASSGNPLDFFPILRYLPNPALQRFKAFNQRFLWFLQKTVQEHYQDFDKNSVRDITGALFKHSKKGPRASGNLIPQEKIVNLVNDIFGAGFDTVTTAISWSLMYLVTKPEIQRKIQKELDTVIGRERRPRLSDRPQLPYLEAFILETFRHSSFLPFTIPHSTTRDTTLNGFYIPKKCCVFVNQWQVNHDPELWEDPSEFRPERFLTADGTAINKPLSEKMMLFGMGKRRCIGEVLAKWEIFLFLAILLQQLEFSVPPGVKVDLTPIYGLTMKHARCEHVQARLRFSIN

Cytochrome P450 3A4 = Cytochrome P450 3A4 (Homo sapiens, UniProt P08684);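 further: CYP3A4 tested as one member of a cytochrome P450 panel screen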
Cytochrome P450 3A4, sequence (P08684 whole entry): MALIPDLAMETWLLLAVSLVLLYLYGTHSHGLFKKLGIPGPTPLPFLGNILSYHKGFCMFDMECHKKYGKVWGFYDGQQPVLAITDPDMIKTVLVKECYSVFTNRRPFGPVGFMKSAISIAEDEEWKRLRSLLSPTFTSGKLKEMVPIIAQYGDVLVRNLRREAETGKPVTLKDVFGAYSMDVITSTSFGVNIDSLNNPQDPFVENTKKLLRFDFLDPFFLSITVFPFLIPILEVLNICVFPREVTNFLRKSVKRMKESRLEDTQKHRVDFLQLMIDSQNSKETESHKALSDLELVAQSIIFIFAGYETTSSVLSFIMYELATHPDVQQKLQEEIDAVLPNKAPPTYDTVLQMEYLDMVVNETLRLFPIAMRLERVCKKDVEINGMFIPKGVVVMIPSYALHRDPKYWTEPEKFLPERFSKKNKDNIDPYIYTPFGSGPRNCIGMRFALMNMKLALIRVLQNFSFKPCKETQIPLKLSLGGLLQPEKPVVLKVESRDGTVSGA

[9] = inhibitors of SNCA 5'UTR-driven reporter translation, confirmation, H4 neuroglioma cells, luminescence (AID 1988); type: functional, cell-based
[10] = inhibitors of firefly luciferase expression or activity, dose response, H4 neuroglioma cells, luminescence (AID 1990); type: functional, cell-based
Cytochrome P450 2D6 = Cytochrome P450 2D6 (Homo sapiens, UniProt P10635);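 further: CYP2D6 member of a cytochrome P450 panel assay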
Cytochrome P450 2D6, sequence (P10635 whole entry): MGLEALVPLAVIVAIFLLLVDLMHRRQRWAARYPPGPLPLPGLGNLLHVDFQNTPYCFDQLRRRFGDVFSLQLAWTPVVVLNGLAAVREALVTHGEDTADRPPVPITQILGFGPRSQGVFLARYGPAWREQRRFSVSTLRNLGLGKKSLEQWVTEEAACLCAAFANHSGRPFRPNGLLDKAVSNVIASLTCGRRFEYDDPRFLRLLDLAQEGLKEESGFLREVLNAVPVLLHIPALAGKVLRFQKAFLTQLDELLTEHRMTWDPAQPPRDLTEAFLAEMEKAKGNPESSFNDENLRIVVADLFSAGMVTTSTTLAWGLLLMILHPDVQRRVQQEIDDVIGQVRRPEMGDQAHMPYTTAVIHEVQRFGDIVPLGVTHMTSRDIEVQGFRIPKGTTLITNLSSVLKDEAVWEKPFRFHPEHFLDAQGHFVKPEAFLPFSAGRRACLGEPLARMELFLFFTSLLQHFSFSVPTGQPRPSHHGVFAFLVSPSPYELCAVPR

Cytochrome P450 2C19 = Cytochrome P450 2C19 (Homo sapiens, UniProt P33261); experiment: Cytochrome panel assay with activity outcomes. Panel member name: p450-cyp2c19 Compounds with AC50 equal or less than 10 uM are considered active; type: functional; conditions: read-out: AC50
Cytochrome P450 2C19, sequence (P33261 whole entry): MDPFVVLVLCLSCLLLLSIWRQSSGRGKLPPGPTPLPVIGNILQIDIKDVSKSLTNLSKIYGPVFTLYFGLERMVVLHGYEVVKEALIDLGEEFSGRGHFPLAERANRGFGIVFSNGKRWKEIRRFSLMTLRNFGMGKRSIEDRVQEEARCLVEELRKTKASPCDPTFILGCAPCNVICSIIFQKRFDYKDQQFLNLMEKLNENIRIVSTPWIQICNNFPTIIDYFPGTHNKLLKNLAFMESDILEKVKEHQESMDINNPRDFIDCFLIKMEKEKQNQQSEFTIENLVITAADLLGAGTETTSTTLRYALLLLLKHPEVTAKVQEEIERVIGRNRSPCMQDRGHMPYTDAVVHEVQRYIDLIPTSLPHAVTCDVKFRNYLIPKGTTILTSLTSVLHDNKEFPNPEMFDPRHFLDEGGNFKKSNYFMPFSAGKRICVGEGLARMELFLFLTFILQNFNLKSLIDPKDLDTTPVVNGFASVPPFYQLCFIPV

INS1 = experiment: beta cell apoptosis inhibitors, cytokine rescue, dose response, luminescence, retest (AID 449756); type: functional, cell-based; conditions: Rattus norvegicus;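 further: cell death triggered by IL-1 beta plus TNF-alpha plus IFN-gamma mixture; protective hits raise ATP signal compared with cytokine alone wells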
[11] = Luminescence Cell-Based Dose Response HTS to Identify Inhibitors of 5'UTR Stem-Loop Driven Prion Protein mRNA Translation in H4 Neuroglioblastoma Cells. [Related pubchem assays: 1827 (Project Summary), 1813 (Primary HTS)]; type: functional

CS(=O)(=O)NNC(=O)Cn1nnc(-c2ccc(OCc3ccccc3Cl)cc2)n1
EC50 [1]: 25 µM (active)
EC50 [2]: 18.2 µM (active)
EC50 (H4): > 120 µM (not active)

COc1ccc(OCC(=O)NC(=S)Nc2ccc(S(=O)(=O)Nc3cc(OC)nc(OC)n3)cc2)cc1
IC50 [3]: > 66 µM (inactive)
IC50 [4]: > 66 µM (inactive)

c1ccc(CN2CCN(c3nc(-c4ccccn4)nc4ccccc34)CC2)cc1
EC50 [5]: 10.6 µM (active)
EC50 [6]: 8.05 µM (active)

COC(=O)c1ccc(-n2cnc3ccccc32)nc1
EC50 [1]: 16.1 µM (active)
EC50 [2]: 14.1 µM (active)
EC50 (H4): > 120 µM (not active)

Cc1ccc2sc(C)[n+](CCC(C)S(=O)(=O)[O-])c2c1 (stereo not drawn)
IC50 [3]: > 66 µM (inactive)
IC50 [4]: > 66 µM (inactive)

COC(=O)CCC(=O)OC1(C)C(=O)C2=COC(c3ccc(OC)cc3)=CC2=C(Br)C1=O (stereo not drawn)
EC50 [7]: 33.1 µM (active)
EC50 [8]: 91.5 µM (active)

CCOC(=O)N1CCN(C(=O)c2cccn3c(=O)c4cc(Cl)ccc4nc23)CC1
AC50 (Cytochrome P450 1A2): 25.1 µM (inconclusive)

COc1cccc(NC(=O)CSc2nc3ccccc3cc2Cc2ccccc2)c1
AC50 (Cytochrome P450 1A2): 4.47 µM (inconclusive)

COc1ccc(/C=C/C(=O)Nc2ccccc2C(=O)N2CCCC2)cc1
AC50 (Cytochrome P450 3A4): 1 µM (inconclusive)
AC50 (Cytochrome P450 1A2): 28.2 µM (inconclusive)

CCNc1ncc2nc(-c3cc(F)cc(F)c3)c(=O)n(CCc3ccccc3)c2n1
AC50 (Cytochrome P450 3A4): 12.6 µM (inconclusive)
AC50 (Cytochrome P450 1A2): 25.1 µM (inconclusive)

C(=N\Nc1nc(-c2ccccc2)cs1)/c1ccco1
EC50 [1]: 7.64 µM (active)
EC50 [2]: 5.18 µM (active)
EC50 (H4): 33.2 µM (active)

CC1Cc2ccccc2N1C(=O)CSc1n[nH]c2c3cc(F)ccc3nc-2n1 (stereo not drawn)
EC50 [5]: 24.5 µM (active)
EC50 [6]: 25 µM (active)

Cc1cccn2c(=O)c3cc(C(=O)NCCN4CCOCC4)c(=N)n(Cc4cccnc4)c3nc12
EC50 [7]: 87.2 µM (active)
EC50 [8]: > 300 µM (not active)
EC50 [9]: 9.91 µM (active)
EC50 [10]: 12.6 µM (active)

CC(=O)c1c(N2CCOCC2)nc(=S)n(-c2ccccc2)c1C
IC50 [3]: > 66 µM (inactive)
IC50 [4]: > 66 µM (inactive)

Cc1ccccc1Nc1nc(N)nc(O)c1N=O
IC50 [3]: 38.2 µM (inactive)
IC50 [4]: > 66 µM (inactive)

Oc1ccc(C(=S)N2CCCCCC2)cc1
IC50 [3]: > 66 µM (inactive)
IC50 [4]: > 66 µM (inactive)

CN1CCN(C(=O)c2ccc(-n3cccc3)cc2)CC1
AC50 (Cytochrome P450 2D6): 15.8 µM (inconclusive)
AC50 (Cytochrome P450 1A2): 25.1 µM (inconclusive)
AC50 (Cytochrome P450 2C19): 25.1 µM (inconclusive)

CCCCc1noc2c1/C(=N\O)CC(c1ccccc1)C2 (stereo not drawn)
EC50 [1]: 6.02 µM (active)
EC50 [2]: > 120 µM (not active)
EC50 (H4): 27.9 µM (active)

CCOC(=O)c1sc(NC(=O)c2c(C)nn(Cc3ccccc3)c2C)cc1C
EC50 [5]: 30.4 µM (active)
EC50 [6]: 27.7 µM (active)
AC50 (INS1): 37.2 µM (active)

CCOc1cc(C(=S)N2CCOCC2)ccc1OC
IC50 [3]: > 66 µM (inactive)
IC50 [4]: > 66 µM (inactive)

Cc1ccn2c(=O)nc(SCC(=O)Nc3cc(C)on3)nc2c1
EC50 [7]: > 300 µM (not active)
EC50 [8]: > 300 µM (not active)

C/C(NCc1ccc2c(c1)OCO2)=C1/C(=O)NC(=O)N(c2ccccc2)C1=O
EC50 [7]: > 300 µM (not active)
EC50 [8]: > 300 µM (not active)

COc1cc2c(cc1OC)CN(C(=O)CSc1ccccc1C)CC2
IC50 [3]: > 66 µM (inactive)
IC50 [4]: > 66 µM (inactive)

O=C(CSc1ccccc1C(=O)O)NC1CCCCCC1
IC50 [3]: > 66 µM (inactive)
IC50 [4]: > 66 µM (inactive)

COc1ccc(/C=C2/N=C(c3cccs3)OC2=O)cc1OC(C)C
EC50 [7]: 41.1 µM (active)
EC50 [8]: > 300 µM (not active)

Brc1ccc2oc3c(N4CCOCC4)ncnc3c2c1
EC50 [1]: 4.18 µM (active)
EC50 [2]: 18.5 µM (active)
EC50 (H4): 14.7 µM (active)

COc1ccc(C2C(C#N)=C(N)OC3=C2C(=O)CCC3)cc1Cn1nc(C)c([N+](=O)[O-])c1C (stereo not drawn)
EC50 [7]: > 300 µM (not active)
EC50 [8]: > 300 µM (not active)

Cc1cnn(-c2cc(Oc3ccccc3)ncn2)c1
EC50 [1]: 97.4 µM (active)
EC50 [2]: 1.11 µM (active)
EC50 (H4): 11 µM (active)

NS(=O)(=O)c1ccc(NC(=O)COC(=O)c2cn(-c3ccccc3)nc2-c2ccc(F)cc2)cc1
EC50 [7]: > 300 µM (not active)
EC50 [8]: > 300 µM (not active)

Cn1c(=O)c(C(=O)CSc2nnc(Nc3ccccc3)s2)c(N)n(Cc2ccccc2)c1=O
EC50 [5]: 8.05 µM (active)
EC50 [6]: 9.15 µM (active)

Cc1n[nH]c(SC(C(=O)c2ccccc2)c2ccccc2)n1 (stereo not drawn)
AC50 (Cytochrome P450 2D6): 20 µM (inconclusive)
AC50 (Cytochrome P450 1A2): 39.8 µM (inconclusive)

COc1ccccc1-c1nccc(NC2CCNCC2)n1
AC50 (Cytochrome P450 1A2): 15.8 µM (inconclusive)
AC50 (Cytochrome P450 2C19): 1.58 µM (inconclusive)

O=C(OCc1ccc(Cl)cc1)c1ccccc1C(=O)c1ccccc1
AC50 (Cytochrome P450 3A4): 17.8 µM (inconclusive)
AC50 (Cytochrome P450 1A2): 3.55 µM (inconclusive)
AC50 (Cytochrome P450 2C19): 0.0891 µM (inconclusive)

CCSc1sccc1C1C(C#N)=C(N)N(c2cccnc2)C2=C1C(=O)CCC2 (stereo not drawn)
IC50 [3]: > 66 µM (inactive)
IC50 [4]: > 66 µM (inactive)

CC(=O)NC(Cc1ccc(F)cc1)C(=O)O (stereo not drawn)
AC50 (Cytochrome P450 1A2): 0.01 µM (inconclusive)

COC(=O)c1ccc(CO/N=C2\CCCc3nonc32)cc1
EC50 [1]: 17.8 µM (active)
EC50 [2]: 92.4 µM (active)
EC50 (H4): 12.9 µM (active)

CCC(C(=O)NC1CCCC1)N(C(=O)Cn1nnc(-c2ccc(C)o2)n1)c1cnc2ccccc2c1 (stereo not drawn)
EC50 [5]: 17.2 µM (active)
EC50 [6]: 17.5 µM (active)

Cc1cccc(-c2nc(=S)c3c(o2)CCCC3)c1
IC50 [3]: > 66 µM (inactive)
IC50 [4]: > 66 µM (inactive)

CC(C)CCn1c(N2CCN(c3cccc(Cl)c3)CC2)nc2c1c(=O)[nH]c(=O)n2C
EC50 [5]: 26.1 µM (active)
EC50 [6]: 33.5 µM (active)
EC50 [11]: > 60 µM (not active)
EC50 [9]: > 120 µM (not active)
EC50 [10]: 18.9 µM (active)

COc1ccc(C(=O)N=C(N)Nc2nc3ccccc3o2)cc1
EC50 [1]: 24.2 µM (active)
EC50 [2]: > 120 µM (not active)
EC50 (H4): 29.5 µM (active)

COc1ccc(NC(S)=Nc2ccc3nccnc3c2)cc1
EC50 [1]: 7.7 µM (active)
EC50 [2]: > 120 µM (not active)
EC50 (H4): 8.17 µM (active)

Cc1ccc(NC(=O)c2cc(-c3ccccc3)nn2-c2ccccc2)c(Br)c1
EC50 [5]: 34.6 µM (active)
EC50 [6]: 23.5 µM (active)
